Test [1] relates to enkephalinase. As to the kind of experiment: in vivo potentiation of the analgesic effect of met-enkephalin (enkephalinase inhibitory activity in vivo). Details: species or system mouse. The conditions noted are these: met-enkephalin (20 ug), intracerebroventricular administration. The method, then: (§1) The enkephalinase inhibitory activity can be determined in vivo, e.g. by measuring the potentiation of the analgesic activity of intracerebrally administered D-Ala^2 -met^5 -enkephalinamide or met-enkephalin in mice. The enkephalinase inhibitory activity is also determined in vivo by measuring the increase in endogenous brain enkephalin levels, or by direct measurement of striatum enkephalinase activity in mice.

Test [2] in a line: hot plate test for analgesia in the mouse (mean response latency). Type of test: in vivo. To be noted: for dose that increases the mean response latency in the hot plate test: mice, intracerebroventricular administration. The text has this: The analgesic activity is demonstrable by potentiation of the analgesic effects of enkephalin and derivatives thereof, and by classical analgesic tests, such as the phenyl-p-benzoquinone induced writing test [J. Pharmacol. Exp. Therap. 125, 237 (1959)] and the hot plate test in the mouse [J. Pharmaol. Exp. Therap. 107, 385 (1953)].
The analgesic activity can be measured by the hot-plate test method in the mouse as follows and essentially as described in J. Pharmacol. Exp. Therap. 107, 385 (1953).
The compound is administered intravenously or intracerebroventricularly 15 minutes prior to the measurement of the response latency. Male CF, (Charles River) mice (20 g) are allowed food and water ad libitum up to the time of testing. The hot plate test for analgesia utilizes an apparatus with an electrically heated, thermostatically controlled copper plate (Analgesia Meter). A Plexiglas cylinder, 25.5 cm×16 cm (inner diameter) and open at both ends, confines the mice to the central area of the hot plate. The surface temperature is maintained at 55°±0.5° C. Response latency is recorded as the time (seconds) from contact with the hot plate until a jump occurs or at 240 seconds if no response occurs within this time. Animals are individually tested at 15 minutes following intravenous or intracerebroventricular (ICV) injection. Intracerebroventricular injections into the lateral ventricle are carried out according to the method of Haley and McCormick, as described in Brit. J. Pharmacol. 12; 12, 1957.
The mean response latency and standard error are calculated. Significance is determined using Student's unpaired t-test, 2-tailed comparison.
Background: Thermal pain tests record how soon the animal reacts.

The target in test [3] is T1, enkephalinase (Rattus norvegicus, UniProt P07861).
T1 construct: synaptic membrane preparation from rat striatum; from tissue; host or cells: rat striatum, synaptic membrane preparation
T1 sequence (P07861 1-750): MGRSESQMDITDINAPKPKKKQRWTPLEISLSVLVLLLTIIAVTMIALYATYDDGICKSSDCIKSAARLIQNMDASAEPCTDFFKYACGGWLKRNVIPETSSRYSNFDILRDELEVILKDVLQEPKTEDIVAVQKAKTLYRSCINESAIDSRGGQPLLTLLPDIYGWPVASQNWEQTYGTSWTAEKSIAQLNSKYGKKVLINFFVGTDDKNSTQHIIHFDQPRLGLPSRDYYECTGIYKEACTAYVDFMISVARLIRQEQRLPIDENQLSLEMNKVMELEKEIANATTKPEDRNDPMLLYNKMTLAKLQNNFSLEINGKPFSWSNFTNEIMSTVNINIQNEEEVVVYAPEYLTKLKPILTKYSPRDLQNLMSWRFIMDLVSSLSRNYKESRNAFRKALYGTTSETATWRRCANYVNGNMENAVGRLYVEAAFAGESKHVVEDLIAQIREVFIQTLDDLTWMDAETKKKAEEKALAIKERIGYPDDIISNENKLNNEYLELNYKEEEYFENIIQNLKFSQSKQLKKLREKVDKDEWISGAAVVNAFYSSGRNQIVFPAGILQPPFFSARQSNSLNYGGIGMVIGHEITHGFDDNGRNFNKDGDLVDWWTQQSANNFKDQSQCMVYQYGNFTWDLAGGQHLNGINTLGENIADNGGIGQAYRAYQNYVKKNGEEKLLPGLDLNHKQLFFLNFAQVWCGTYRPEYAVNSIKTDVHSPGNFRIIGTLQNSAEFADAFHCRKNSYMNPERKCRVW
As to the kind of experiment: in vitro inhibition of enkephalinase (3H-Tyr-gly-gly generation from 3H-Leu-enkephalin, synaptic membranes from rat striatum). The format is biochemical. To be noted: rat striatum synaptic membrane preparation, pH 6-5, 15 minutes at 30° C., 10^-6 M Bestatin. The method, then: The enkephalinane inhibitory activity is determined in vitro by an adaptation of the method of Alstein et al. as described in Life Sciences 28, 185 (1981), as follows:
A mixture of a solution of the test compound in distilled water or distilled water and ethanol diluted with pH 6-5 buffer and of a synaptic membrane preparation from rat striatum is incubated at pH 6-5 with ^3 H-Leu-enkephalin for 15 minutes at 30° C., in the presence of 10^-6 M Bestatin (to inhibit aminopeptidase activity). The reaction is stopped by the addition of 30% acetic acid and the reaction product ^3 H-Tyr-gly-gly is separated from unreacted ^3 H-Leu-enkephalin on a Porapak O column followed by a Cu^++ -chelex column. The ^3 H-Tyr-gly-gly is counted by liquid scintillation. The amount of ^3 H-Tyr-gly-gly generated in the presence of test compound as compared to control is then calculated. An IC50 value representing the concentration of test compound required for 50% inhibition of ^3 H-Tyr-gly-gly generation is then determined graphically.

In test [4] the test system is enkephalinase. As to the kind of experiment: in vivo potentiation of the analgesic effect of D-Ala^2-Met^5-enkephalinamide (enkephalinase inhibitory activity in vivo). The arrangement: species or system mouse. To be noted: s.c. The method, then: as §1

SMILES strings stand for the structures.

For the molecule `CCOC(=O)[C@@H](Cc1ccccc1)C[C@H](Cc1ccccc1)C(=O)NCCC(=O)O` (relative stereo) [N-[4-ethoxycarbonyl-(R*,R*)-2,4-dibenzylbutyryl]-3-aminopropionic acid], in the test on enkephalinase [1], the “dose that potentiates the analgesic effect of met-enkephalin” value is recorded as “about 0.01 ug”. For the same molecule, the “dose that increases the mean response latency in the hot plate test” value in test [2] was approximately 0.03 µg.
On to `O=C(O)CCNC(=O)[C@@H](Cc1ccccc1)C[C@H](Cc1ccccc1)C(=O)O` (relative stereo) [N-[(R*,R*)-2,4-dibenzyl-4-carboxybutyryl]-3-aminopropionic acid], for which the IC50 (in general, the concentration that inhibits the measured activity by half) against enkephalinase [3] was approximately 0.02 µM.
The molecule `O=C(O)CCCNC(=O)[C@@H](Cc1ccccc1)C[C@H](Cc1ccccc1)C(=O)O` (relative stereo) [N-[(R*,R*)-2,4-dibenzyl-4-carboxybutyryl]-4-aminobutyric acid] showed an IC50 against enkephalinase [3] of approximately 0.02 µM. In test [2], the “dose that increases the mean response latency in the hot plate test” value is listed as “about 0.1 ug”.
For `CC1(C)O[C@@H]2[C@@H](COC(=O)CCNC(=O)[C@H](Cc3ccccc3)C[C@@H](Cc3ccccc3)C(=O)O)OC(=O)[C@@H]2O1` [17/6, 2,3-O-isopropylidene-D-ribono-(1,4-lactone)-5-yl N-(2S,4S-dibenzyl-4-carboxybutyryl)-3-aminopropionate], the “dose that potentiates the analgesic effect of D-Ala^2-Met^5-enkephalinamide” value in the test with enkephalinase [4] was 30 mg/kg.
As to `CC1(C)O[C@H]2O[C@H]([C@H]3COC(C)(C)O3)[C@H](OC(=O)CCNC(=O)[C@H](Cc3ccccc3)C[C@@H](Cc3ccccc3)C(=O)O)[C@H]2O1` [Example 17/10, 1,2:5,6-di-O-isopropylidene-D-glucofuranos-3-yl N-(2S,4S-dibenzyl-4-carboxybutyryl)-3-aminopropionate], the minimal effective dose (usually the smallest amount tested that counted as effective) in test [2] (iv, 0.25 h, mouse, effective at the dose "and lower") was not above 30 mg/kg.
Take `O=C(O)CCNC(=O)[C@H](Cc1ccccc1)C[C@@H](Cc1ccccc1)C(=O)O` [N-(2S,4S-dibenzyl-4-carboxybutyryl)-3-aminopropionic acid]: the IC50 on enkephalinase [3] is approximately 0.008 µM.

The record behind these values is patent US5096925A, “N-substituted butyramide derivatives” (Ciba-Geigy Corporation, priority 1990, dated 1992).
